Values joined by “and” are separate entries in the source; they are usually repeats but may differ in a detail not shown here. Identical values can stand only once.
Assay: HPLC studies of reaction kinetics of tetrazine prodrugs with cyclooctyne alkynes (Kobs, second-order rate constant k2)
Type: physicochemical
Conditions: for Kobs: prodrug 25 μM; for k2 at 37° C. (second order rate constant) / k2 at r.t (second order rate constant): PBS containing 10% DMSO, n = 3
Method: Stock solution preparation. Each of the tetrazine prodrugs (compounds 1b, 1c, and 1d) was dissolved in DMSO to afford a 500-μM stock solution. Each of the alkynes (compounds 2a, 2b, 2c, and 2d) was dissolved in DMSO to afford a 50-mM stock solution. Doxorubicin (Dox) and dansylamino compound (DA) 1.1b were each dissolved in DMSO to afford 1-mM stock solutions.
(§1) HPLC method A.: mobile phase A (10 mM NaH2PO4 in water, pH=5.0) and mobile phase B (ACN), flow rate: 1 mL/min, running time: 30 min, the gradient elution method: 25% B from 0 to 6 min, 25% to 50% B from 6 to 8 min, 50% B from 8 to 15 min, 50% to 99% B from 15 to 20 min, 99% B from 20 to 25 min, 99% to 25% B from 25 to 30 min. Detection wavelength: 256 nm. Column: Waters C18 3.5 μM, 4.6×100 mm. Injection volume: 20 μL.
as §1, with “method B:” for “method A.:”, “method: 30%” for “method: 25%”, “min, 30%” for “min, 25%”, “25 min.” for “25 min,”, “to 30%” for “to 25%”, “Detection wavelength 1: 256, detection wavelength 2: 337” for “Detection wavelength: 256”
General procedures HPLC studies of reaction kinetics. To three 20-ml vials with 9 mL PBS were added a solution of tetrazine prodrug (500 μL, 500 μM). 350 μL, 300 μL and 250 μL DMSO were added to vial respectively, and then 150 μL, 200 μL and 250 μL of the alkyne solution (50 mM in DMSO) were added to the vials to afford final concentrations of alkyne 0.75 mM, 1 mM and 1.25 mM in PBS (10% DMSO, 25 μM prodrug) respectively. The reaction was stirred at r.t or 37° C. respectively. Every 30 min about 500 μL reaction mixtures were taken out and 20 μL of them were injected into the HPLC by the autosampler; the rest of them were poured back to the reaction mixture. (Note: In the cases of prodrugs 1d or 1b reacting with alkyne 2d at 37° C., the final concentrations of 2d in the kinetic studies were 250 μM, 300 μM and 350 μM).
Determination of second-order rate constants. The reaction rate constant, kobs, was calculated for each concentration of the alkyne by fitting the prodrug areas versus time using eq. 1: Y=A exp(−kobst) eq. 1 where Y is the prodrug area, and t is time. The pseudo-first-order rate constant, kobs, was then plotted against the concentration of alkyne to yield the second-order rate constant using eq 2: kobs=k2[Alkyne] eq. 2 where k2 is the second-order rate constant.

[1] = 37° C., alkyne 2b 0.75 mM, Expt. 1
[2] = 37° C., alkyne 2b 0.75 mM, Expt. 2
[3] = 37° C., alkyne 2b 0.75 mM, Expt. 3
[4] = 37° C., alkyne 2b 1.00 mM, Expt. 1
[5] = 37° C., alkyne 2b 1.00 mM, Expt. 2
[6] = 37° C., alkyne 2b 1.00 mM, Expt. 3
[7] = 37° C., alkyne 2b 1.25 mM, Expt. 1
[8] = 37° C., alkyne 2b 1.25 mM, Expt. 2
[9] = 37° C., alkyne 2b 1.25 mM, Expt. 3
[10] = r.t, alkyne 2b 0.75 mM, Expt. 1
[11] = r.t, alkyne 2b 0.75 mM, Expt. 2
[12] = r.t, alkyne 2b 0.75 mM, Expt. 3
[13] = r.t, alkyne 2b 1.00 mM, Expt. 1
[14] = r.t, alkyne 2b 1.00 mM, Expt. 2
[15] = r.t, alkyne 2b 1.00 mM, Expt. 3
[16] = r.t, alkyne 2b 1.25 mM, Expt. 1
[17] = r.t, alkyne 2b 1.25 mM, Expt. 2
[18] = r.t, alkyne 2b 1.25 mM, Expt. 3

COc1cccc2c1C(=O)c1c(O)c3c(c(O)c1C2=O)CC(O)(C(=O)CO)CC3OC1CC(NC(=O)c2nnc(-c3ccc(OCc4cn(CCCCCCCCC[P+](c5ccccc5)(c5ccccc5)c5ccccc5)nn4)cc3)nn2)C(O)C(C)O1 (centres unmarked) [1c]
Kobs [1]: 0.711 h⁻¹ | Kobs [2]: 0.701 h⁻¹ | Kobs [3]: 0.714 h⁻¹ | Kobs [4]: 0.921 h⁻¹ | Kobs [5]: 0.902 h⁻¹ | Kobs [6]: 0.871 h⁻¹ | Kobs [7]: 1.21 h⁻¹ | Kobs [8]: 1.15 h⁻¹ | Kobs [9]: 1.09 h⁻¹ | k2 at 37° C. (second order rate constant) (alkyne 2b, 37° C.): 0.25 ± 0.05 M⁻¹ s⁻¹ | k2 at r.t (second order rate constant) (alkyne 2b, r.t): 0.091 ± 0.013 M⁻¹ s⁻¹ | Kobs [10]: 0.296 h⁻¹ | Kobs [11]: 0.305 h⁻¹ | Kobs [12]: 0.291 h⁻¹ | Kobs [13]: 0.331 h⁻¹ | Kobs [14]: 0.356 h⁻¹ | Kobs [15]: 0.359 h⁻¹ | Kobs [16]: 0.445 h⁻¹ | Kobs [17]: 0.465 h⁻¹ | Kobs [18]: 0.474 h⁻¹

C#CCOc1ccc(-c2nnc(C(=O)NCCCOCCOCCOCCCNS(=O)(=O)c3cccc4c(N(C)C)cccc34)nn2)cc1 [1d]
Kobs [1]: 0.411 h⁻¹ | Kobs [2]: 0.388 h⁻¹ | Kobs [3]: 0.353 h⁻¹ | Kobs [4]: 0.548 h⁻¹ | Kobs [5]: 0.511 h⁻¹ | Kobs [6]: 0.453 h⁻¹ | Kobs [7]: 0.695 h⁻¹ | Kobs [8]: 0.636 h⁻¹ | Kobs [9]: 0.561 h⁻¹ | Kobs (37° C., alkyne 2c 0.75 mM, Expt. 1): 0.0506 h⁻¹ | Kobs (37° C., alkyne 2c 0.75 mM, Expt. 2): 0.0584 h⁻¹ | Kobs (37° C., alkyne 2c 0.75 mM, Expt. 3): 0.0599 h⁻¹ | Kobs (37° C., alkyne 2c 1.00 mM, Expt. 1): 0.0670 h⁻¹ | Kobs (37° C., alkyne 2c 1.00 mM, Expt. 2): 0.0781 h⁻¹ | Kobs (37° C., alkyne 2c 1.00 mM, Expt. 3): 0.0801 h⁻¹ | Kobs (37° C., alkyne 2c 1.25 mM, Expt. 1): 0.083 h⁻¹ | Kobs (37° C., alkyne 2c 1.25 mM, Expt. 2): 0.0978 h⁻¹ | Kobs (37° C., alkyne 2c 1.25 mM, Expt. 3): 0.101 h⁻¹ | Kobs (37° C., alkyne 2d 0.25 mM, Expt. 1): 1.82 h⁻¹ | Kobs (37° C., alkyne 2d 0.25 mM, Expt. 2): 1.64 h⁻¹ | Kobs (37° C., alkyne 2d 0.25 mM, Expt. 3): 1.90 h⁻¹ | Kobs (37° C., alkyne 2d 0.3 mM, Expt. 1): 2.15 h⁻¹ | Kobs (37° C., alkyne 2d 0.3 mM, Expt. 2): 1.94 h⁻¹ | Kobs (37° C., alkyne 2d 0.3 mM, Expt. 3): 2.26 h⁻¹ | Kobs (37° C., alkyne 2d 0.35 mM, Expt. 1): 2.53 h⁻¹ | Kobs (37° C., alkyne 2d 0.35 mM, Expt. 2): 2.25 h⁻¹ | Kobs (37° C., alkyne 2d 0.35 mM, Expt. 3): 2.65 h⁻¹ | k2 at 37° C. (second order rate constant) (alkyne 2b, 37° C.): 0.14 M⁻¹ s⁻¹ and 0.14 ± 0.04 M⁻¹ s⁻¹ | k2 at r.t (second order rate constant) (alkyne 2b, r.t): 0.042 M⁻¹ s⁻¹ and 0.042 ± 0.012 M⁻¹ s⁻¹ | k2 at 37° C. (second order rate constant) (alkyne 2c, 37° C.): 0.021 M⁻¹ s⁻¹ and 0.021 ± 0.005 M⁻¹ s⁻¹ | k2 at r.t (second order rate constant) (alkyne 2c, r.t): 0.0075 M⁻¹ s⁻¹ and 0.0075 ± 0.0009 M⁻¹ s⁻¹ | k2 at 37° C. (second order rate constant) (alkyne 2d, 37° C.): 1.9 M⁻¹ s⁻¹ and 1.9 ± 0.4 M⁻¹ s⁻¹ | k2 at r.t (second order rate constant) (alkyne 2d, r.t): 0.25 M⁻¹ s⁻¹ and 0.25 ± 0.06 M⁻¹ s⁻¹ | Kobs [10]: 0.125 h⁻¹ | Kobs [11]: 0.115 h⁻¹ | Kobs [12]: 0.13 h⁻¹ | Kobs [13]: 0.155 h⁻¹ | Kobs [14]: 0.148 h⁻¹ | Kobs [15]: 0.175 h⁻¹ | Kobs [16]: 0.199 h⁻¹ | Kobs [17]: 0.180 h⁻¹ | Kobs [18]: 0.22 h⁻¹ | Kobs (r.t, alkyne 2c 0.75 mM, Expt. 1): 0.0203 h⁻¹ | Kobs (r.t, alkyne 2c 0.75 mM, Expt. 2): 0.0201 h⁻¹ | Kobs (r.t, alkyne 2c 0.75 mM, Expt. 3): 0.0217 h⁻¹ | Kobs (r.t, alkyne 2c 1.00 mM, Expt. 1): 0.0273 h⁻¹ | Kobs (r.t, alkyne 2c 1.00 mM, Expt. 2): 0.0269 h⁻¹ | Kobs (r.t, alkyne 2c 1.00 mM, Expt. 3): 0.0289 h⁻¹ | Kobs (r.t, alkyne 2c 1.25 mM, Expt. 1): 0.0339 h⁻¹ | Kobs (r.t, alkyne 2c 1.25 mM, Expt. 2): 0.0324 h⁻¹ | Kobs (r.t, alkyne 2c 1.25 mM, Expt. 3): 0.0359 h⁻¹ | Kobs (r.t, alkyne 2d 0.75 mM, Expt. 1): 0.752 h⁻¹ | Kobs (r.t, alkyne 2d 0.75 mM, Expt. 2): 0.704 h⁻¹ | Kobs (r.t, alkyne 2d 0.75 mM, Expt. 3): 0.756 h⁻¹ | Kobs (r.t, alkyne 2d 1.00 mM, Expt. 1): 0.980 h⁻¹ | Kobs (r.t, alkyne 2d 1.00 mM, Expt. 2): 0.802 h⁻¹ | Kobs (r.t, alkyne 2d 1.00 mM, Expt. 3): 1.01 h⁻¹ | Kobs (r.t, alkyne 2d 1.25 mM, Expt. 1): 1.20 h⁻¹ | Kobs (r.t, alkyne 2d 1.25 mM, Expt. 2): 1.10 h⁻¹ | Kobs (r.t, alkyne 2d 1.25 mM, Expt. 3): 1.26 h⁻¹
